Measurements published in patent US20260201008A1, “SECRETIN-DERIVED GLP1R SELECTIVE AGONISTS” (GUBRA A/S, priority 2023, published 2026).
Read-outs that look alike come from different tables or passages of the source. Numbered stars: 1 amine (or outer) side, 2 acyl side, 3 side chain; on linkers, the order of the positions; unused ones are H or OH. Square brackets hold non-standard residues; d marks the D form. Side chains are listed from the residue outwards. Peptide text beside a SMILES is read from it. * marks the point of attachment. C20 diacid = O=C(O)CCCCCCCCCCCCCCCCCCC(=O)*; γGlu = O=C(O)[C@H](CCC(=O)[*:2])N[*:1]; AEEA = NCCOCCOCC(=O)O; Aib = CC(C)(N)C(=O)O

Tests used:
[1] = Turbidity of crude library peptides (absorbance at 600 nm); format: physicochemical; conditions: Physical stability of peptides
Method in brief: (§1)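 Turbidity is the absorbance at 600 nm, taken before heating. Fibril signal is the mean ThT emission at 480 nm (450 nm excitation), read every 10 min over 72 h at 40° C with 700 rpm shaking between reads. Peptides at 267 μM, pH 4.0 acetate or pH 7.0 phosphate buffer (50 mM), 4 μM ThT final.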

[2] = Fibril formation of crude library peptides (Thioflavin T); format: physicochemical; parameters: key: average ThT fluorescence emission at 480 nm (ex 450 nm), raw units; conditions: Physical stability of peptides
Method in brief: as §1

GLP1R = GLP1R (Homo sapiens, UniProt P43220); experiment: hGLP1R potency, cAMP accumulation in CHO-K1 cells stably overexpressing hGLP1R; format: cell-based; parameters: host or cells: CHO-K1; conditions: for Selectivity: SCTR EC50/GLP1R EC50 ratio; for EC50: cAMP accumulation; for SCTR EC50/GLP1R EC50 ratio: cAMP accumulation in CHO-K1 cells
Method in brief: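 2000 cells/well, DPBS + 0.05% casein + 0.5 mM IBMX; 30 min RT stimulation; HTRF cAMP detection after 1 h. Purified: 3-fold ×11, n=2; crude: 10-fold ×5, n=1. EC50 by variable-slope fit.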

SCTR = SCTR (Homo sapiens, UniProt P47872); experiment: hSCTR potency, cAMP accumulation in CHO-K1 cells stably overexpressing hSCTR; format: cell-based; parameters: alternatively Euroscreen ES-712-AF; FAST-0161L; host or cells: CHO-K1; conditions: cAMP accumulation
Method in brief: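 Thawed CHO-K1 cells carrying stable hSCTR are plated into casein/IBMX buffer (0.05%, 0.5 mM), dosed immediately for 30 min at room temperature, then cAMP is detected by TR-FRET. Purified peptides run as 11 three-fold dilutions in duplicate, and curves are fitted with variable slope.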

[3] = CHO-K1 cells overexpressing hGLP1R, read-out: pEC50 hGLPR1 (converted)
[4] = CHO-K1 cells overexpressing hSCTR, read-out: pEC50 hSCTR (converted)
[5] = CHO-K1 cells overexpressing hGLP1R, read-out: hGLP1R pEC50 (converted)
[6] = selectivity for hGLP1R over hSCTR
[7] = CHO-K1 cells overexpressing hSCTR, read-out: hSCTR pEC50 (converted)
[8] = CHO-K1 cells stably overexpressing hGLP1R, read-out: hGLP1R potency (pEC50) (converted)
[9] = selectivity ratio, hSCTR vs hGLP1R
[10] = CHO-K1 cells stably overexpressing hSCTR, read-out: hSCTR potency (pEC50) (converted)

Sequence of GLP1R (P43220 24-463): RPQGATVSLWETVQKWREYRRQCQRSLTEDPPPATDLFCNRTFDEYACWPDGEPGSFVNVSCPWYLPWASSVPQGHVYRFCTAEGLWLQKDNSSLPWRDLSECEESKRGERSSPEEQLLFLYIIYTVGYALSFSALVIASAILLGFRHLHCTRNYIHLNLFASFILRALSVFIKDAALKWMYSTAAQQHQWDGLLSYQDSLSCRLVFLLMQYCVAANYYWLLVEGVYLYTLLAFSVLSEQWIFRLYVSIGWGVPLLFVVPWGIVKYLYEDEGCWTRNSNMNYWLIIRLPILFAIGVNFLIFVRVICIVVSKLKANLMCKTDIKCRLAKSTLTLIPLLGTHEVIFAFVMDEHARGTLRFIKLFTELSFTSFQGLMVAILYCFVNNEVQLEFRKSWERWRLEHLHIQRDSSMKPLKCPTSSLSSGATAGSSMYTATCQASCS
Sequence of SCTR (P47872 23-440): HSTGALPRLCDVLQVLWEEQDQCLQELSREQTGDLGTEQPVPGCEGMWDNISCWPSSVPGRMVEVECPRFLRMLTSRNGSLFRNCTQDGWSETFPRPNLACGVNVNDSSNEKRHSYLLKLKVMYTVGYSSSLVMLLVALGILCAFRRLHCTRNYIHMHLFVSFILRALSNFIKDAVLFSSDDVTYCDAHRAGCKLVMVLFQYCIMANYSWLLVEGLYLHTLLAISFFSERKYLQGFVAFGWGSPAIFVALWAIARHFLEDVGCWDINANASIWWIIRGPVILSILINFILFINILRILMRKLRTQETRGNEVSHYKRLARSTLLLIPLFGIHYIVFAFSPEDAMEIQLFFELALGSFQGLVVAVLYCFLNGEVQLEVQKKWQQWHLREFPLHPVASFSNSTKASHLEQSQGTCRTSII

| Compound | Turbidity (pH 7) [1] | Fibril formation [2] | Selectivity (GLP1R) | EC50 (GLP1R; [3]) | EC50 (SCTR; [4]) | EC50 (GLP1R; [5]) | SCTR EC50/GLP1R EC50 ratio (GLP1R; [6]) | EC50 (SCTR; [7]) | EC50 (GLP1R; [8]) | SCTR EC50/GLP1R EC50 ratio (GLP1R; [9]) | EC50 (SCTR; [10]) |
| --- | --- | --- | --- | --- | --- | --- | --- | --- | --- | --- | --- |
| CC(C)C[C@H](NC(=O)[C@H](CCC(=O)O)NC(=O)[C@H](CCCCNC(=O)COCCOCCNC(=O)COCCOCCNC(=O)CC[C@H](NC(=O)CCCCCCCCCCCCCCCCCCC(=O)O)C(=O)O)NC(=O)[C@H](CC(C)C)NC(=O)[C@H](CCCNC(=N)N)NC(=O)[C@H](CO)NC(=O)[C@@H](NC(=O)[C@H](CC(=O)O)NC(=O)[C@H](CO)NC(=O)[C@@H](NC(=O)[C@H](Cc1ccccc1)NC(=O)[C@@H](NC(=O)CNC(=O)[C@H](CCC(=O)O)NC(=O)C(C)(C)NC(=O)[C@@H](N)Cc1c[nH]cn1)[C@@H](C)O)[C@@H](C)O)C(C)C)C(=O)N[C@@H](C)C(=O)N[C@@H](C)C(=O)N[C@@H](C)C(=O)N[C@@H](CCC(N)=O)C(=O)N[C@@H](CCCNC(=N)N)C(=O)N[C@@H](Cc1ccccc1)C(=O)N[C@@H](CC(C)C)C(=O)N[C@@H](CCC(=O)O)C(=O)N[C@@H](Cc1c[nH]cn1)C(=O)N[C@@H](CC(C)C)C(=O)N[C@H](C(N)=O)C(C)C [compound 9] (H-H[Aib]EGTFTSDVSRLK([AEEA-AEEA-γGlu-C20 diacid])ELAAAQRFLEHLV-NH2) | 0.08 | 10378 | 13668 | 0.0631 nM | 1000 nM | – | – | – | – | – | – |
| CC(C)C[C@H](NC(=O)[C@H](Cc1ccccc1)NC(=O)[C@H](CCCNC(=N)N)NC(=O)[C@H](CCC(N)=O)NC(=O)[C@H](CC(C)C)NC(=O)C(C)(C)NC(=O)[C@H](C)NC(=O)[C@H](CCC(=O)O)NC(=O)[C@H](CCC(=O)O)NC(=O)[C@H](CCCCNC(=O)COCCOCCNC(=O)COCCOCCNC(=O)CC[C@H](NC(=O)CCCCCCCCCCCCCCCCCCC(=O)O)C(=O)O)NC(=O)[C@H](CC(C)C)NC(=O)C(C)(C)NC(=O)[C@H](CO)NC(=O)[C@@H](NC(=O)[C@H](CC(=O)O)NC(=O)[C@H](CO)NC(=O)[C@@H](NC(=O)[C@H](Cc1ccccc1)NC(=O)[C@@H](NC(=O)CNC(=O)[C@H](CCC(=O)O)NC(=O)C(C)(C)NC(=O)[C@@H](N)Cc1c[nH]cn1)[C@@H](C)O)[C@@H](C)O)C(C)C)C(=O)N[C@@H](CCC(=O)O)C(=O)N[C@@H](Cc1c[nH]cn1)C(=O)N[C@@H](CC(C)C)C(=O)N[C@H](C(N)=O)C(C)C [compound 163] (H-H[Aib]EGTFTSDVS[Aib]LK([AEEA-AEEA-γGlu-C20 diacid])EEA[Aib]LQRFLEHLV-NH2) | 0.08 | 3983 | – | – | – | 0.0126 nM | 3669 | 39.8 nM | – | – | – |
| CC(C)C[C@H](NC(=O)[C@H](Cc1ccccc1)NC(=O)[C@H](CCCNC(=N)N)NC(=O)[C@H](CCC(N)=O)NC(=O)[C@H](CCC(N)=O)NC(=O)[C@H](C)NC(=O)[C@H](C)NC(=O)[C@H](Cc1ccccc1)NC(=O)[C@H](CCC(=O)O)NC(=O)[C@H](CCCCNC(=O)COCCOCCNC(=O)COCCOCCNC(=O)CC[C@H](NC(=O)CCCCCCCCCCCCCCCCCCC(=O)O)C(=O)O)NC(=O)[C@H](CC(C)C)NC(=O)[C@H](CCCNC(=N)N)NC(=O)[C@H](CO)NC(=O)[C@@H](NC(=O)[C@H](CC(=O)O)NC(=O)[C@H](CO)NC(=O)[C@@H](NC(=O)[C@H](Cc1ccccc1)NC(=O)[C@@H](NC(=O)CNC(=O)[C@H](CCC(=O)O)NC(=O)C(C)(C)NC(=O)[C@@H](N)Cc1c[nH]cn1)[C@@H](C)O)[C@@H](C)O)C(C)C)C(=O)N[C@@H](CCC(=O)O)C(=O)N[C@@H](Cc1c[nH]cn1)C(=O)N[C@@H](CC(C)C)C(=O)N[C@H](C(N)=O)C(C)C [compound 24] (H-H[Aib]EGTFTSDVSRLK([AEEA-AEEA-γGlu-C20 diacid])EFAAQQRFLEHLV-NH2) | 0.08 | 221619 | 2998 | 0.0501 nM | 158 nM | – | – | – | – | – | – |
| CC[C@H](C)[C@H](NC(=O)[C@H](Cc1ccccc1)NC(=O)[C@H](CCCNC(=N)N)NC(=O)[C@H](CCC(N)=O)NC(=O)[C@H](CC(C)C)NC(=O)[C@H](C)NC(=O)[C@H](C)NC(=O)CNC(=O)[C@H](CCC(=O)O)NC(=O)[C@H](CC(C)C)NC(=O)[C@H](CC(C)C)NC(=O)[C@H](CCCNC(=N)N)NC(=O)[C@H](CO)NC(=O)[C@H](Cc1ccc(O)cc1)NC(=O)[C@H](CC(=O)O)NC(=O)[C@H](CO)NC(=O)[C@@H](NC(=O)[C@H](Cc1ccccc1)NC(=O)[C@@H](NC(=O)CNC(=O)[C@H](CCC(=O)O)NC(=O)C(C)(C)NC(=O)[C@@H](N)Cc1c[nH]cn1)[C@@H](C)O)[C@@H](C)O)C(=O)N[C@@H](CCC(N)=O)C(=O)N[C@@H](Cc1c[nH]c2ccccc12)C(=O)N[C@@H](CC(C)C)C(=O)N[C@H](C(N)=O)C(C)C [compound 194] (H-H[Aib]EGTFTSDYSRLLEGAALQRFIQWLV-NH2) | 0.27 | 8355 | – | – | – | – | – | – | 0.0126 nM | 114 | 1.58 nM |
| CC[C@H](C)[C@H](NC(=O)[C@H](Cc1ccccc1)NC(=O)[C@H](CCCNC(=N)N)NC(=O)[C@H](CCC(N)=O)NC(=O)[C@H](CC(C)C)NC(=O)[C@H](C)NC(=O)[C@H](C)NC(=O)CNC(=O)[C@H](CCC(=O)O)NC(=O)[C@H](CC(C)C)NC(=O)[C@H](CC(C)C)NC(=O)CNC(=O)[C@H](CO)NC(=O)C(C)(C)NC(=O)[C@H](CC(=O)O)NC(=O)[C@H](CO)NC(=O)[C@@H](NC(=O)[C@H](Cc1ccccc1)NC(=O)[C@@H](NC(=O)CNC(=O)[C@H](CCC(=O)O)NC(=O)C(C)(C)NC(=O)[C@@H](N)Cc1c[nH]cn1)[C@@H](C)O)[C@@H](C)O)C(=O)N[C@@H](CCC(N)=O)C(=O)N[C@@H](Cc1c[nH]c2ccccc12)C(=O)N[C@@H](CC(C)C)C(=O)N[C@H](C(N)=O)C(C)C [compound 105] (H-H[Aib]EGTFTSD[Aib]SGLLEGAALQRFIQWLV-NH2) | 0.12 | 4216 | – | – | – | 0.1 nM | 14710 | 1580 nM | – | – | – |
| CC[C@H](C)[C@H](NC(=O)[C@H](Cc1ccccc1)NC(=O)[C@H](CCCNC(=N)N)NC(=O)[C@H](CCC(N)=O)NC(=O)[C@H](CC(C)C)NC(=O)[C@H](C)NC(=O)[C@H](C)NC(=O)CNC(=O)[C@H](CCC(=O)O)NC(=O)[C@H](CC(C)C)NC(=O)[C@H](CC(C)C)NC(=O)C(C)(C)NC(=O)[C@H](CO)NC(=O)[C@H](Cc1ccc(O)cc1)NC(=O)[C@H](CC(=O)O)NC(=O)[C@H](CO)NC(=O)[C@@H](NC(=O)[C@H](Cc1ccccc1)NC(=O)[C@@H](NC(=O)CNC(=O)[C@H](CCC(=O)O)NC(=O)C(C)(C)NC(=O)[C@@H](N)Cc1c[nH]cn1)[C@@H](C)O)[C@@H](C)O)C(=O)N[C@@H](CCC(N)=O)C(=O)N[C@@H](Cc1c[nH]c2ccccc12)C(=O)N[C@@H](CC(C)C)C(=O)N[C@H](C(N)=O)C(C)C [compound 197] (H-H[Aib]EGTFTSDYS[Aib]LLEGAALQRFIQWLV-NH2) | 0.21 | 7498 | – | – | – | – | – | – | 0.0158 nM | 492 | 7.94 nM |
| CC[C@H](C)[C@H](NC(=O)[C@H](Cc1ccccc1)NC(=O)[C@H](CCCNC(=N)N)NC(=O)[C@H](CCC(N)=O)NC(=O)[C@H](CC(C)C)NC(=O)[C@H](C)NC(=O)[C@H](C)NC(=O)CNC(=O)[C@H](CCC(=O)O)NC(=O)[C@H](CC(C)C)NC(=O)[C@H](CC(C)C)NC(=O)C(C)(C)NC(=O)[C@H](CO)NC(=O)[C@@H](NC(=O)[C@H](CC(=O)O)NC(=O)[C@H](CO)NC(=O)[C@@H](NC(=O)[C@H](Cc1ccccc1)NC(=O)[C@@H](NC(=O)CNC(=O)[C@H](CCC(=O)O)NC(=O)C(C)(C)NC(=O)[C@@H](N)Cc1c[nH]cn1)[C@@H](C)O)[C@@H](C)O)[C@@H](C)CC)C(=O)N[C@@H](CCC(N)=O)C(=O)N[C@@H](Cc1c[nH]c2ccccc12)C(=O)N[C@@H](CC(C)C)C(=O)N[C@H](C(N)=O)C(C)C [compound 113] (H-H[Aib]EGTFTSDIS[Aib]LLEGAALQRFIQWLV-NH2) | 0.78 | 11510 | – | – | – | 0.0501 nM | 1590 | 79.4 nM | – | – | – |
